One may read the IC50 as the midpoint of a concentration-inhibition curve. A high value points to lower potency. For orientation: half-life means the time needed for the level to fall by half in the phase considered. The term clearance denotes the rate of elimination divided by the concentration. Read a low clearance as inefficient removal. The term bioavailability denotes the share of a dose that reaches the circulation, judged against a reference dose that is usually intravenous.

The target in data set [1] is T1, Integrin alpha-V/beta-3 (Homo sapiens, UniProt P05106+P06756). Put plainly: Inhibition of Integrin alphav-beta3 receptor by SPRA assay. In kind it is protein-complex assay.
Data set [2] deals with Integrin alpha-IIb/beta-3 (Homo sapiens, UniProt P05106+P08514). Put plainly: Inhibition of Integrin alpha-2b-beta-3 receptor by SPRA assay. In kind it is protein-complex assay.
In the next data set the target is Integrin alpha-V/beta-6 (Homo sapiens, UniProt P06756+P18564). The data set can be described thus: Inhibition of Integrin alphav-beta6 receptor expressed in HT29 cell line. Type of data set: cell-based, HT-29.
Data set [3] concerns the target T1, Integrin alpha-V/beta-3. The data set can be described thus: Inhibition of Integrin alphav-beta3 receptor expressed in HEK293 cells. Type of data set: cell-based.
The target in a further data set is Integrin alpha-V/beta-5 (Homo sapiens, UniProt P06756+P18084). The data set can be described thus: Inhibition of Integrin alphav-beta5 receptor expressed in HEK293 cell line. In kind it is cell-based.
For another data set, the target named is Integrin alpha-V/beta-1 (Homo sapiens, UniProt P05556+P06756). Put plainly: Inhibition of Integrin alphav-beta1 receptor expressed in HEK293 cell line. Type of data set: cell-based.
Data set [4] can be described thus: Half life in rat at 5 mg/kg, iv. Type of data set: ADME, organism-based. The note with it: in vivo. Set-up: dose 5 mg/kg, route intravenous.
Data set [5] can be described thus: Clearance in rat at 5 mg/kg, iv. Type of data set: ADME, organism-based. Set-up: dose 5 mg/kg, route intravenous. The settings on record: in vivo.
A short description of data set [6]: Volume of distribution in rat at 5 mg/kg, iv. In kind it is ADME, organism-based. Set-up: dose 5 mg/kg, route intravenous. The note with it: in vivo, read-out: Vdss.
The nature of data set [7]: Bioavailability in rat at 5 mg/kg, iv. The note with it: in vivo. In kind it is ADME, organism-based.
The next data set has as its system Rattus norvegicus. The data set can be described thus: AUC/dose(mg/kg) in orally dosed rat at 10 mg/kg. In kind it is ADME, organism-based, Plasma. Set-up: dose 10 mg/kg, route oral. The settings on record: in vivo, po.

Sequence of Integrin alpha-V/beta-5 (P06756 31-889 limits assumed): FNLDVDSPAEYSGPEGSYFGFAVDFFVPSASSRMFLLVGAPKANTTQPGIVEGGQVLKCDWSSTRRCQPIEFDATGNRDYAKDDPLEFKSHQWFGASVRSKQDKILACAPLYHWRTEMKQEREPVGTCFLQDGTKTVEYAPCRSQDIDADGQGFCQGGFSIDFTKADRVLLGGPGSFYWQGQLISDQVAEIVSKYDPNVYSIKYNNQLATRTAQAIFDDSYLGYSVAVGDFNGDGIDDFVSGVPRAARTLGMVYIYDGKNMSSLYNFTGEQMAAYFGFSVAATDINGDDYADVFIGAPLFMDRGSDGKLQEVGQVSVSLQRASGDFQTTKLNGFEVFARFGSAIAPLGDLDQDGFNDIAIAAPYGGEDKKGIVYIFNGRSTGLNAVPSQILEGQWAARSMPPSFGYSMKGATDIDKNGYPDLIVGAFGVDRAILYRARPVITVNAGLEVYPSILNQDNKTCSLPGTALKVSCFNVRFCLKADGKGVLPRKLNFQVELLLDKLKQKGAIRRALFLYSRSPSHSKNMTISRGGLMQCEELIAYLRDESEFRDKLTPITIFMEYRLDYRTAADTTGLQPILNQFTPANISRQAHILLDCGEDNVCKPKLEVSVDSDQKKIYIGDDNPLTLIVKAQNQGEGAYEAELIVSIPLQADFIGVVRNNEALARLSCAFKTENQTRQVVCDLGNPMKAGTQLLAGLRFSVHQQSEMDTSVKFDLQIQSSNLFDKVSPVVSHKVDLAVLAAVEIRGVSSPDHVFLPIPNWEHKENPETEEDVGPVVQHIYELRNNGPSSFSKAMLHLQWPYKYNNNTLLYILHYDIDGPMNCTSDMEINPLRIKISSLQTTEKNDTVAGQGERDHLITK
Sequence of Integrin alpha-V/beta-5 (P06756 891-1048 limits assumed): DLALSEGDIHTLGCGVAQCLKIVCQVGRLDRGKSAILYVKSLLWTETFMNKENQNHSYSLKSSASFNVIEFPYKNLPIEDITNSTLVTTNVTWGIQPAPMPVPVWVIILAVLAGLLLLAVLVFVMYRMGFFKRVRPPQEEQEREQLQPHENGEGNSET
Sequence of Integrin alpha-V/beta-5 (P18084 24-799 limits assumed): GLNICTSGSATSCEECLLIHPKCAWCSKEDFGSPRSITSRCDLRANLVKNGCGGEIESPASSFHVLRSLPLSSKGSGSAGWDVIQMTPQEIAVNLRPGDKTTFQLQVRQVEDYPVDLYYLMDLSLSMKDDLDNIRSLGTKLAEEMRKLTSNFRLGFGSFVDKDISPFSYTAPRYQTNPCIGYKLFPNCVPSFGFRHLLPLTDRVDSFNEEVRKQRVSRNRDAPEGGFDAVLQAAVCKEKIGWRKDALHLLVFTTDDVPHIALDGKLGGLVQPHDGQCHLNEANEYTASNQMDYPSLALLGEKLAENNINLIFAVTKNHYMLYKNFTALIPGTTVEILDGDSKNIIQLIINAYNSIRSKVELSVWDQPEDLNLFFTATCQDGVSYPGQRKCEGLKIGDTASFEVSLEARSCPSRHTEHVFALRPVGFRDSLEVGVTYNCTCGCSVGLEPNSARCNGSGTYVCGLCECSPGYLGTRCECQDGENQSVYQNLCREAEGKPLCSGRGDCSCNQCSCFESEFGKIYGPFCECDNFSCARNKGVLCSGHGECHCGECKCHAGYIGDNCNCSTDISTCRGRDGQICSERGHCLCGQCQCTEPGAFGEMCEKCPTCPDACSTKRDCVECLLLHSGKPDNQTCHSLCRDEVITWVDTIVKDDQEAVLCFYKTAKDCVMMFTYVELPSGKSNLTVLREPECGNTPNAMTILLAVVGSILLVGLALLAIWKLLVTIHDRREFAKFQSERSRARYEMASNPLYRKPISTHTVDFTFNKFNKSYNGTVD
Sequence of Integrin alpha-V/beta-6 (P06756 31-889 limits assumed): as the sequence (P06756 31-889 limits assumed) above
Sequence of Integrin alpha-V/beta-6 (P06756 891-1048 limits assumed): as the sequence (P06756 891-1048 limits assumed) above
Sequence of Integrin alpha-V/beta-6 (P18564 22-788 limits assumed): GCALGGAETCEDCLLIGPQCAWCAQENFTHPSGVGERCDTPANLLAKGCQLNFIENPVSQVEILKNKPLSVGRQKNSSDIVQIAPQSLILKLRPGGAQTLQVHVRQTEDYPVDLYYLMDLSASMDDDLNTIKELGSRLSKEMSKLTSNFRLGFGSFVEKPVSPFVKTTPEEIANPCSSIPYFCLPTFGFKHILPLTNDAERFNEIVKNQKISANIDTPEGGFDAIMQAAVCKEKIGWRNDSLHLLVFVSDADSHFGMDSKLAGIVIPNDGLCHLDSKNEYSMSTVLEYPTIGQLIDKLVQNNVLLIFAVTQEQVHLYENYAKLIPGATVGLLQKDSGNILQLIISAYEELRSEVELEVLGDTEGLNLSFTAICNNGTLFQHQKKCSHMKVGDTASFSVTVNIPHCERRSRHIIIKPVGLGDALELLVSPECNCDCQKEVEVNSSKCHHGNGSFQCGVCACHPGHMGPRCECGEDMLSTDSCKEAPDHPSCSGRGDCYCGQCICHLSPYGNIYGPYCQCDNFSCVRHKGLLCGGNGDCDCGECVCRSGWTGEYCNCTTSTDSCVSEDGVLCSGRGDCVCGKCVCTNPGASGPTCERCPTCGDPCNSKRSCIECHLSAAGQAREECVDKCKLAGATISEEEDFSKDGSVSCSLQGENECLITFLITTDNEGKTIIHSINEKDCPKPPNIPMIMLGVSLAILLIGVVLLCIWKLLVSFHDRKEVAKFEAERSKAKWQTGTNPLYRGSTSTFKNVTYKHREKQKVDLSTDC
Sequence of Integrin alpha-IIb/beta-3 (P05106 27-788 limits assumed): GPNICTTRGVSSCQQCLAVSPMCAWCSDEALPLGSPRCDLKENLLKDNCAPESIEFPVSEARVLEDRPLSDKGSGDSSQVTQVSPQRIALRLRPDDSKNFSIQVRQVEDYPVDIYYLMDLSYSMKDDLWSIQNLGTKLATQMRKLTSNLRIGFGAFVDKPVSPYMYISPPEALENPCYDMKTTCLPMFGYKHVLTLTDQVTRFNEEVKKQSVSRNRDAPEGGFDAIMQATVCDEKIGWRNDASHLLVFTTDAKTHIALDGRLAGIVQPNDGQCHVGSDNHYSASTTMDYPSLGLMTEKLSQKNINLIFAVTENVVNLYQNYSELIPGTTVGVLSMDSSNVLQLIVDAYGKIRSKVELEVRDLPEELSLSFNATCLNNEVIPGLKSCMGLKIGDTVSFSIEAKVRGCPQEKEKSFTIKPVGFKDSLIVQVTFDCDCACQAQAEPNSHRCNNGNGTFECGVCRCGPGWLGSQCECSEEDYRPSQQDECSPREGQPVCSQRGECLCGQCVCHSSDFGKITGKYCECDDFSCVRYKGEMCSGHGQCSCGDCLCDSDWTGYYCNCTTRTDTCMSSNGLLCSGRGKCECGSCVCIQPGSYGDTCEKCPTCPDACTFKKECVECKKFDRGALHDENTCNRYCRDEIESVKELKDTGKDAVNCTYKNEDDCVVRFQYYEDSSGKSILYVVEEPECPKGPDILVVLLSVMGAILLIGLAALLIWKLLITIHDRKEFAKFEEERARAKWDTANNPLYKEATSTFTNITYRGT
Sequence of Integrin alpha-IIb/beta-3 (P08514 32-887 limits assumed): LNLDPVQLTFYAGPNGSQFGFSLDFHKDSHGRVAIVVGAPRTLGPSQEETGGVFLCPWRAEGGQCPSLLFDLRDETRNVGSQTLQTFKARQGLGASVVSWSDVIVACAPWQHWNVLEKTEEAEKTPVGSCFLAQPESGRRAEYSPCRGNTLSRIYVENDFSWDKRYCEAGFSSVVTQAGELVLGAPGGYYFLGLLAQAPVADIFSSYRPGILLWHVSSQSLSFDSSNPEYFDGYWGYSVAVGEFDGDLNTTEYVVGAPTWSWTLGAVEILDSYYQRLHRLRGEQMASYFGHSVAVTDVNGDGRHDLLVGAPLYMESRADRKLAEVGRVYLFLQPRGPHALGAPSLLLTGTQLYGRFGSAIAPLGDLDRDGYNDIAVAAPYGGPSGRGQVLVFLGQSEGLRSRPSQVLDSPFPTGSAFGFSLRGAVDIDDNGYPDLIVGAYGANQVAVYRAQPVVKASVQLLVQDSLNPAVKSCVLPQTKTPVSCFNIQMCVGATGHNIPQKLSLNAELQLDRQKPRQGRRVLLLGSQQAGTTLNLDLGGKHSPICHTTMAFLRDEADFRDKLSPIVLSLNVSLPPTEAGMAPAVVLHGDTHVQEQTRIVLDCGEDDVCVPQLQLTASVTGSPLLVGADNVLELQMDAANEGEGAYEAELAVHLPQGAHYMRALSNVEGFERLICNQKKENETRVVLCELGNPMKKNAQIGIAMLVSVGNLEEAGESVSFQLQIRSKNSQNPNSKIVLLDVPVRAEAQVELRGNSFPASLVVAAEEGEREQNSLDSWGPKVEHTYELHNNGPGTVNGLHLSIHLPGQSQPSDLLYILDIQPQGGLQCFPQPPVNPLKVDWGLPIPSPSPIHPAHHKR
Sequence of Integrin alpha-IIb/beta-3 (P08514 891-1039 limits assumed): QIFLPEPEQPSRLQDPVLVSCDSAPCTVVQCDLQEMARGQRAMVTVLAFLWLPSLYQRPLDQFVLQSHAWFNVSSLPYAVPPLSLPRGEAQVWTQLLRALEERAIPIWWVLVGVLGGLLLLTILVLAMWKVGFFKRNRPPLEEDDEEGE
T1 sequence (P05106 27-788 limits assumed): as the sequence (P05106 27-788 limits assumed) above
T1 sequence (P06756 31-889 limits assumed): as the sequence (P06756 31-889 limits assumed) above
T1 sequence (P06756 891-1048 limits assumed): as the sequence (P06756 891-1048 limits assumed) above

`O=C(O)C[C@H](Cc1nc(CCCCNc2ccccn2)no1)c1ccc2c(c1)OCO2`: the IC50 on Integrin alpha-V/beta-3 [1] amounted to 2.4 nM; in data set [2] it was 126 nM.

In the case of `O=C(O)C[C@H](Cc1nc(CCCCNc2cc(N3CCOCC3)ccn2)no1)c1ccc2c(c1)OCO2`, the IC50 on Integrin alpha-V/beta-6 is 4360 nM; at Integrin alpha-V/beta-3 [1] it was 0.78 nM; on Integrin alpha-V/beta-3 [3], 0.74 nM; against Integrin alpha-V/beta-5, 4.6 nM; in data set [2], 17 nM.

For the molecule `O=C(O)CC(Cc1nc(CCCc2ccc3c(n2)NCCC3)no1)c1ccc2ncoc2c1` (stereo not given), the IC50 at Integrin alpha-V/beta-6 is 486 nM; against Integrin alpha-V/beta-1, 2.7 nM; at Integrin alpha-V/beta-3 [1], 0.5 nM; against Integrin alpha-V/beta-3 [3] it was 0.32 nM; in data set [2], 65.4 nM.

Turning to `Cc1ccnc(NCCCCc2noc(C[C@@H](CC(=O)O)c3ccc4c(c3)OCO4)n2)c1`, the IC50 was determined as 2 nM at Integrin alpha-V/beta-3 [1] and 91 nM in [2].

On to `O=C(O)CC(Cc1nc(CCCc2ccc3c(n2)NCCC3)no1)c1ccc2c(c1)OCC2` (stereo not given), for which the IC50 against Integrin alpha-V/beta-6 came out at 3020 nM; against Integrin alpha-V/beta-1, 9.7 nM; at Integrin alpha-V/beta-3 [1], 2.1 nM; on Integrin alpha-V/beta-3 [3] it was 0.63 nM; in data set [2] it was 224 nM. Further, the half-life in data set [4] was 1.2 h. This molecule also came in with a clearance in [5] of 17.3 mL/min/kg. Also, the Vd in data set [6] was found to be 0.803 L/kg. In [7], this molecule yielded a bioavailability of 63%. Moreover, the AUC/dose in the data set on Rattus norvegicus was 970 ng·h/mL/(mg/kg).

As to `CC(C)(CC(=O)O)Cc1nc(CCCc2ccc3c(n2)NCCC3)no1`, the IC50 at Integrin alpha-V/beta-3 [1] came out at 20 nM; in data set [2], 12600 nM.

For `CNc1cccc(CCCc2noc(CC(CC(=O)O)c3ccc4c(c3)OCO4)n2)n1` (stereo not given), the IC50 against Integrin alpha-V/beta-6 was above 10000 nM; against Integrin alpha-V/beta-3 [1] it was 2.1 nM; at Integrin alpha-V/beta-3 [3] it was 3.2 nM; against Integrin alpha-V/beta-5, 16 nM; in data set [2], 278 nM.

As for `O=C(O)CC(Cc1nc(CCCc2ccc3c(n2)NCCC3)no1)c1cnc(C2CC2)s1` (stereo not given), the IC50 against Integrin alpha-V/beta-6 turned out to be 1590 nM; on Integrin alpha-V/beta-3 [1], 1.43 nM; on Integrin alpha-V/beta-3 [3] it was 0.6 nM; on Integrin alpha-V/beta-5, 1.2 nM; in data set [2] it was 168 nM. The molecule also gave a half-life in [4] of 1.8 h. Besides, the clearance in data set [5] was found to be 5.56 mL/min/kg. Moreover, the Vd in data set [6] was 0.497 L/kg. In [7], this molecule displayed a bioavailability of 96%. The AUC/dose with Rattus norvegicus is 3050 ng·h/mL/(mg/kg).

As for `CC(CC(=O)O)(Cc1nc(CCCc2ccc3c(n2)NCCC3)no1)c1cccnc1` (stereo not given), the IC50 against Integrin alpha-V/beta-3 [1] was 3.6 nM; in [2] it was 950 nM.

`O=C(O)CC(Cc1nc(CCCc2ccc3c(n2)NCCC3)no1)c1cccc(F)c1` (stereo not given): the half-inhibitory concentration (IC50) worked out at 3730 nM against Integrin alpha-V/beta-6; 1.75 nM against Integrin alpha-V/beta-3 [1]; 1.1 nM against Integrin alpha-V/beta-3 [3]; 3.7 nM on Integrin alpha-V/beta-5; 419 nM in data set [2].

As to `O=C(O)CC1(Cc2nc(CCCc3ccc4c(n3)NCCC4)no2)CCCC1`, the IC50 stood at 9.5 nM on Integrin alpha-V/beta-3 [1] and 8130 nM in data set [2].

Turning to `C#CC(CC(=O)O)Cc1nc(CCCc2ccc3c(n2)NCCC3)no1` (stereo not given), the IC50 on Integrin alpha-V/beta-6 was 6240 nM; on Integrin alpha-V/beta-3 [1], 8.7 nM; on Integrin alpha-V/beta-3 [3], 4 nM; against Integrin alpha-V/beta-5 it was 4 nM; in [2], 1220 nM.

For the molecule `CC(CC(=O)O)Cc1nc(CCCc2ccc3c(n2)NCCC3)no1` (stereo not given), the figures for the concentration for half-maximal inhibition (IC50) (on Integrin alpha-V/beta-3 [1]; in data set [2]) were 12 nM and 9300 nM, respectively.

Take `O=C(O)CC(Cc1nc(CCCc2ccc3c(n2)NCCC3)no1)c1ccccc1` (stereo not given): the IC50 against Integrin alpha-V/beta-3 [1] is 1.8 nM; in data set [2], 747 nM.

For `O=C(O)C[C@H](Cc1nc(CCCc2ccc3c(n2)NCCC3)no1)c1ccc2c(c1)OCO2`, the half-inhibitory concentration (IC50) came to 2660 nM against Integrin alpha-V/beta-6; 2.6 nM at Integrin alpha-V/beta-1; 0.4 nM at Integrin alpha-V/beta-3 [1]; 0.65 nM at Integrin alpha-V/beta-3 [3]; 1.7 nM against Integrin alpha-V/beta-5; 27 nM in data set [2]. In data set [4], this molecule showed a half-life of 1.4 h. This molecule yielded a clearance in data set [5] of 10.9 mL/min/kg. In addition, in data set [6], the Vd is 0.733 L/kg. In data set [7], this molecule yielded a bioavailability of 95%. Besides, the AUC/dose in the data set on Rattus norvegicus is 1500 ng·h/mL/(mg/kg).

`O=C(O)CC(Cc1nc(CCCc2ccc3c(n2)NCCC3)no1)c1cnn(-c2ccccc2)c1` (stereo not given): the figures for the IC50 (on Integrin alpha-V/beta-3 [1]; in data set [2]) were 1.2 nM and 216 nM, respectively.

Regarding `O=C(O)CCCc1nc(CCCc2ccc3c(n2)NCCC3)no1`, the IC50 is 160 nM on Integrin alpha-V/beta-3 [1] and 32500 nM in data set [2].

For the molecule `O=C(O)CC(Cc1nc(CCCc2ccc3c(n2)NCCC3)no1)c1cnc2ccccc2c1` (stereo not given), in data set [4], the half-life is 1.1 h. Moreover, the IC50 on Integrin alpha-V/beta-3 [1] came to 0.65 nM; in data set [2] it was 18 nM. For the same molecule, the clearance in [5] worked out at 19.1 mL/min/kg. Moreover, the Vd in data set [6] was found to be 0.622 L/kg. This molecule also came in with a bioavailability in data set [7] of 66%. Further, in the data set with Rattus norvegicus, the AUC/dose was 600 ng·h/mL/(mg/kg).

In data set [4], `COc1ccc(C(CC(=O)O)Cc2nc(CCCc3ccc4c(n3)NCCC4)no2)cn1` (stereo not given) gave a half-life of 1.1 h. For the same molecule, the IC50 against Integrin alpha-V/beta-3 [1] worked out at 1 nM; in data set [2], 187 nM. The clearance in data set [5] came to 12 mL/min/kg. Besides, the Vd in [6] came out at 0.694 L/kg. The same molecule displayed a bioavailability in data set [7] of 100%. For the same molecule, in the data set on Rattus norvegicus, the AUC/dose was 1910 ng·h/mL/(mg/kg).

In turn, `CN1CCNc2nc(CCCc3noc(CC(CC(=O)O)c4ccc5c(c4)OCO5)n3)ccc21` (stereo not given) gave a half-life in data set [4] of 0.93 h. Further, on Integrin alpha-V/beta-3 [1], the IC50 is 1.7 nM. The molecule also returned a clearance in data set [5] of 18.2 mL/min/kg. Besides, the Vd in data set [6] was determined as 0.447 L/kg. The bioavailability in [7] was found to be 77%. The AUC/dose in the data set on Rattus norvegicus is 710 ng·h/mL/(mg/kg).

For `CC(CC(=O)O)(Cc1nc(CCCc2ccc3c(n2)NCCC3)no1)c1ccccc1` (stereo not given), the IC50 against Integrin alpha-V/beta-3 [1] came to 116 nM; in data set [2], 35800 nM.

As for `O=C(O)CC(Cc1nc(CCCc2ccc3c(n2)NCCC3)no1)c1cccnc1` (stereo not given), the IC50 was 2420 nM at Integrin alpha-V/beta-6; 1.6 nM against Integrin alpha-V/beta-3 [1]; 0.77 nM against Integrin alpha-V/beta-3 [3]; 3.3 nM against Integrin alpha-V/beta-5; 474 nM in [2].

As for `Cc1ncc(C(CC(=O)O)Cc2nc(CCCc3ccc4c(n3)NCCC4)no2)s1` (stereo not given), the results for the IC50 (against Integrin alpha-V/beta-3 [1]; in data set [2]) were 1.28 nM and 423 nM, respectively.

In the case of `COc1ccnc(NCCCCc2noc(C[C@@H](CC(=O)O)c3ccc4c(c3)OCO4)n2)c1`, the IC50 on Integrin alpha-V/beta-3 [1] worked out at 1.1 nM; in [2], 64 nM.

As for `O=C(O)C[C@H](Cc1nc(CCCCNc2cc(N3CCSCC3)ccn2)no1)c1ccc2c(c1)OCO2`, the IC50 amounted to 2670 nM on Integrin alpha-V/beta-6; 0.26 nM against Integrin alpha-V/beta-3 [1]; 0.62 nM at Integrin alpha-V/beta-3 [3]; 2.9 nM at Integrin alpha-V/beta-5; 22 nM in [2]. Besides, in data set [4], the half-life was 0.4 h. This molecule also came in with a clearance in data set [5] of 78 mL/min/kg. Besides, in data set [6], the Vd is 0.897 L/kg. For the same molecule, the bioavailability in [7] was 29%. Also, the AUC/dose with Rattus norvegicus was 60 ng·h/mL/(mg/kg).
